From patent US9783488B2 (CHDI Foundation, Inc., priority 2013, dated 2017)
pIC50: −log10 of the molar value.

Experiments:
[1] = target: human catalytic domain HDAC4 protein (amino acids 648-1032) (Homo sapiens (Human), UniProt P56524); experiment: Inhibition of HDAC4 catalytic domain enzymatic activity, fluorogenic substrate Boc-Lys(Tfa)-AMC; details: HDAC4 catalytic domain enzyme, read-out: Biochemical HDAC4 IC50
[2] = system: cellular histone deacetylase enzymatic activity in Jurkat E6-1 cells; experiment: Inhibition of cellular HDAC activity in Jurkat E6-1 cells, fluorogenic substrate Boc-Lys(Tfa)-AMC; assay type: cell-based; details: Homo sapiens, read-out: Cell IC50
Method in brief: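 Jurkat E6.1 cells (75,000/well) were pre-treated with compound for 2 h at 37 °C, then given Boc-Lys(Tfa)-AMC (5× stock 500 μM) for 3 h. Cells were lysed with trypsin-containing buffer overnight, and released AMC fluorescence was read at Ex 355/Em 460 nm over a 16-point dilution series.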

Sequence of human catalytic domain HDAC4 protein (amino acids 648-1032) (P56524 648-1032): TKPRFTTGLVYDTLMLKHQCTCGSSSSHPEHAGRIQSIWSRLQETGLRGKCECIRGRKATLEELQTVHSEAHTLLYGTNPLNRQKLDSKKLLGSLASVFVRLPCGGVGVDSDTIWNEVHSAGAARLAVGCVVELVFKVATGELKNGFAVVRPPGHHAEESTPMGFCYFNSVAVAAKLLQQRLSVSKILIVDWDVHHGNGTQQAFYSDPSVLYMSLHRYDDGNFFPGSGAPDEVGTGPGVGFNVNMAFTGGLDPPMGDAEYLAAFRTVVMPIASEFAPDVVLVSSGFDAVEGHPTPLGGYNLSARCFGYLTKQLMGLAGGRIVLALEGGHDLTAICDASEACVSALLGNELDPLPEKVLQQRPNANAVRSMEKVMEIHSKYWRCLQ

pIC50 [1]	pIC50 [2]	SMILES
6.14	5.08	Cc1c(F)cccc1[C@@]1(C(=O)NO)CC[C@H](c2cncc(F)c2)C1 (stereo in doubt) [Example 39, (1R,3S*)-1-(3-fluoro-2-methylphenyl)-3-(5-fluoropyridin-3-yl)-N-hydroxycyclopentanecarboxamide]
6.80	6.62	Cc1c(F)cccc1[C@]1(C(=O)NO)CC[C@@H](c2nc3ccccc3s2)C1 (relative stereo) [Example 76, (1S,3R*)-3-(Benzo[d]thiazol-2-yl)-1-(3-fluoro-2-methylphenyl)-N-hydroxycyclopentanecarboxamide]
6.62	5.63	Cc1c(F)cccc1[C@]1(C(=O)NO)CC[C@@H](c2ccc(F)cn2)C1 (relative stereo) [Example 12, (1S,3R*)-1-(3-fluoro-2-methylphenyl)-3-(5-fluoropyridin-2-yl)-N-hydroxycyclopentane carboxamide]
< 4.30	< 4.30	O=C(NO)[C@]1(c2ccccc2)CC[C@H](c2cncc(F)c2)CC1 [Example 14, (1s,4s)-4-(5-fluoropyridin-3-yl)-N-hydroxy-1-phenylcyclohexanecarboxamide]
7.32	6.74	Cc1c(F)cccc1[C@]1(C(=O)NO)CC[C@H](c2ccc3ncccc3c2)C1 (relative stereo) [Example 84, (1S,3S*)-1-(3-Fluoro-2-methylphenyl)-N-hydroxy-3-(quinolin-6-yl)cyclopentanecarboxamide]
7.01	6.74	Cc1c(F)cccc1[C@]1(C(=O)NO)CC[C@@H](c2ccn3ccnc3c2)C1 (relative stereo) [Example 57, (1S,3R*)-1-(3-fluoro-2-methylphenyl)-N-hydroxy-3-(imidazo[1,2-a]pyridin-7-yl)cyclopentanecarboxamide]
5.85	5.14	O=C(NO)[C@@]1(c2ccccc2)CC[C@H](c2cncc(F)c2)C1 [Example 42, (1S,3S)-3-(5-fluoropyridin-3-yl)-N-hydroxy-1-phenylcyclopentanecarboxamide]
4.94	< 4.30	O=C(NO)C1(c2ccccc2)CCCC1 [Example 21, N-Hydroxy-1-phenylcyclopentanecarboxamide]
6.17	6.27	Cc1c(F)cccc1[C@]1(C(=O)NO)CC[C@H](Oc2ccccc2)CC1 [Example 101, (1r,4r)-1-(3-fluoro-2-methylphenyl)-N-hydroxy-4-phenoxycyclohexanecarboxamide]
5.38	4.59	Cc1c(F)cccc1[C@]1(C(=O)NO)CC[C@@H](c2ccc3cnn(C)c3c2)CC1 [Example 103, (1s,4s)-1-(3-fluoro-2-methylphenyl)-N-hydroxy-4-(1-methyl-1H-indazol-6-yl)cyclohexanecarboxamide]
6.70	5.74	Cc1c(F)cccc1[C@]1(C(=O)NO)CC[C@H](c2ccc(F)cn2)C1 (relative stereo) [Example 11, (1S,3S*)-1-(3-fluoro-2-methylphenyl)-3-(5-fluoropyridin-2-yl)-N-hydroxycyclopentane carboxamide]
5.39	4.42	Cc1c(F)cccc1[C@]1(C(=O)NO)CC[C@H](c2cncc(F)c2)CC1 [Example 99, (1r,4r)-1-(3-fluoro-2-methylphenyl)-4-(5-fluoropyridin-3-yl)-N-hydroxycyclohexanecarboxamide]
6.02	6.19	Cc1c(F)cccc1[C@]1(C(=O)NO)CC[C@H](c2ccc3cnn(C)c3c2)CC1 [Example 104, (1r,4r)-1-(3-fluoro-2-methylphenyl)-N-hydroxy-4-(1-methyl-1H-indazol-6-yl)cyclohexanecarboxamide]
6.41	5.80	Cc1c(F)cccc1[C@]1(C(=O)NO)CC[C@H](c2cncnc2)C1 (relative stereo) [Example 3, (±)-(1S*,3S*)-1-(3-fluoro-2-methylphenyl)-N-hydroxy-3-(pyrimidin-5-yl)cyclopentanecarboxamide]
6.89	6.59	Cc1c(F)cccc1[C@]1(C(=O)NO)CC[C@H](Oc2ccccc2)C1 [Example 96, (1S,3S)-1-(3-fluoro-2-methylphenyl)-N-hydroxy-3-phenoxycyclopentanecarboxamide]
5.16	4.39	O=C(NO)C1(c2ccccc2)CCCCCC1 [Example 106, N-hydroxy-1-phenylcycloheptanecarboxamide]
7.10	6.80	Cc1c(F)cccc1[C@]1(C(=O)NO)CC[C@H](c2nc3ccccc3s2)C1 (relative stereo) [Example 75, (1S,3S*)-3-(Benzo[d]thiazol-2-yl)-1-(3-fluoro-2-methylphenyl)-N-hydroxycyclopentanecarboxamide]
5.44	5.08	Cc1c(F)cccc1[C@@]1(C(=O)NO)CC[C@@H](c2cncc(F)c2)C1 (stereo in doubt) [Example 40, (1R,3R*)-1-(3-fluoro-2-methylphenyl)-3-(5-fluoropyridin-3-yl)-N-hydroxycyclopentanecarboxamide]

More lines, now with the values behind:

SMILES	pIC50 [1]	pIC50 [2]
Cc1c(F)cccc1[C@]1(C(=O)NO)CC[C@H](c2ccc3c(F)nn(C)c3c2)C1 (relative stereo) [Example 68, (1S,3S*)-3-(3-fluoro-1-methyl-1H-indazol-6-yl)-1-(3-fluoro-2-methylphenyl)-N-hydroxycyclopentanecarboxamide]	6.49	6.68
Cc1c(F)cccc1[C@]1(C(=O)NO)CC[C@H](c2ccc3cn(C(F)F)nc3c2)C1 (relative stereo) [Example 66, (1S,3S*)-3-(2-(difluoromethyl)-2H-indazol-6-yl)-1-(3-fluoro-2-methylphenyl)-N-hydroxycyclopentanecarboxamide]	6.66	6.72
Cc1c(F)cccc1C1(C(=O)NO)CCC2(CCOCC2)C1 (racemic) [Example 105, (±)-2-(3-fluoro-2-methylphenyl)-N-hydroxy-8-oxaspiro[4.5]decane-2-carboxamide]	5.85	4.92
O=C(NO)C1(c2ccccc2Cl)CCCC1 [Example 26, 1-(2-Chlorophenyl)-N-hydroxycyclopentanecarboxamide]	5.72	4.82
Cc1c(F)cccc1[C@]1(C(=O)NO)CC[C@@H](c2ccc3nc(C(F)(F)F)[nH]c3c2)C1 (relative stereo) [Example 74, (1S,3R*)-1-(3-Fluoro-2-methylphenyl)-N-hydroxy-3-(2-(trifluoromethyl)-1H-benzo[d]imidazol-6-yl)cyclopentanecarboxamide]	7.13	6.96
O=C(NO)C1(c2cccc3ccsc23)CCCC1 [Example 38, 1-(Benzo[b]thiophen-7-yl)-N-hydroxycyclopentanecarboxamide]	6.21	5.34
Cc1ccc(F)cc1C1(C(=O)NO)CCCC1 [Example 36, 1-(5-Fluoro-2-methylphenyl)-N-hydroxycyclopentanecarboxamide]	6.08	5.12
Cc1c(F)cccc1[C@]1(C(=O)NO)CC[C@@H](c2ccc3c(c2)NCC(C)(C)O3)C1 (relative stereo) [Example 72]	6.52	6.33
Cc1cccc(Cl)c1C1(C(=O)NO)CCCC1 [Example 31, 1-(2-Chloro-6-methylphenyl)-N-hydroxycyclopentanecarboxamide]	6.04	5.09
Cc1c(F)cccc1[C@]1(C(=O)NO)CC[C@@H](c2ccc3nc(C4CC4)sc3c2)C1 (relative stereo) [Example 78, (1 S,3R*)-3-(2-cyclopropylbenzo[d]thiazol-6-yl)-1-(3-fluoro-2-methylphenyl)-N-hydroxycyclopentanecarboxamide]	6.47	6.38
COc1ccccc1C1(C(=O)NO)CCCC1 [Example 23, N-Hydroxy-1-(2-methoxyphenyl)cyclopentanecarboxamide]	< 4.30	< 4.30
O=C(NO)C1(c2ccc(Cl)cc2)CCCC1 [Example 20, 1-(4-chlorophenyl)-N-hydroxycyclopentanecarboxamide]	4.62	< 4.30
Cc1c(F)cccc1[C@]1(C(=O)NO)CC[C@H](N2CCOCC2)C1 (relative stereo) [Example 90, (1S,3S*)-1-(3-Fluoro-2-methylphenyl)-N-hydroxy-3-morpholinocyclopentanecarboxamide]	5.60	4.62
Cc1c(F)cccc1C1(C(=O)NO)CCCCCC1 [Example 107, 1-(3-Fluoro-2-methylphenyl)-N-hydroxycycloheptanecarboxamide]	< 4.30	< 4.30
Cc1c(F)cccc1[C@]1(C(=O)NO)CC[C@H](c2ccc3c(cnn3C)c2)C1 (relative stereo) [Example 64, (1S,3S*)-1-(3-fluoro-2-methylphenyl)-N-hydroxy-3-(1-methyl-1H-indazol-5-yl)cyclopentanecarboxamide]	7.00	6.66
Cc1c(F)cccc1[C@]1(C(=O)NO)CC[C@H](c2ccc3nc(C4CC4)sc3c2)C1 (relative stereo) [Example 77, (1 S,3S*)-3-(2-cyclopropylbenzo[d]thiazol-6-yl)-1-(3-fluoro-2-methylphenyl)-N-hydroxycyclopentanecarboxamide]	6.51	6.38
Cc1cccc(C2(C(=O)NO)CCCC2)c1 [Example 25, N-Hydroxy-1-m-tolylcyclopentanecarboxamide]	5.09	4.36
Cc1c(F)cccc1[C@]1(C(=O)NO)CC[C@H](c2ccc3cnn(C)c3c2F)C1 (relative stereo) [Example 82, (1S,3S*)-3-(7-Fluoro-1-methyl-1H-indazol-6-yl)-1-(3-fluoro-2-methylphenyl)-N-hydroxycyclopentanecarboxamide]	6.96	6.60
